Results published in article PMC7899551, “Phase 1 study of Z-endoxifen in patients with advanced gynecologic, desmoid, and hormone receptor-positive solid tumors” (Oncotarget, 2021).
“And” between values parts separate entries of the source, which are not always exact repeats. Equal entries are not always repeated.

What was measured:
[1] = Plasma pharmacokinetics of Z-endoxifen (HPLC assay, non-compartmental analysis); format: in vivo, human
Description: This was an open-label trial of Z-endoxifen in patients with advanced solid tumors (https://clinicaltrials.gov/ identifier: NCT01273168). Z-endoxifen-HCl was supplied by the Pharmaceutical Management Branch, National Cancer Institute, as 20 and 40 mg capsules; agent was administered orally once daily on a continuous schedule in 28-day cycles with a starting dose of 20 mg/day taken either 1 hour before or 2 hours after meals. Dose escalation followed a traditional 3+3 design in which patients were dose-escalated to the next dose level (DL) in cohorts of 3 patients until dose-limiting toxicity (DLT) was observed. DLT was defined as an adverse event that occurred during cycle 1, was thought to be related to study drug administration, and met one of the following criteria: grade ≥ 3 non-hematologic toxicities (except diarrhea, nausea and vomiting, alopecia, rising creatinine or electrolyte toxicities that resolved within 24 hours, or intolerable estrogen withdrawal symptoms) or grade ≥ 3 hematologic toxicities (except neutropenia lasting less than 5 days, lymphopenia, or anemia). Eight dose levels (DL1-8) were examined: 20, 40, 60, 100, 140, 200, 280, and 360 mg, respectively. Two patients at DL8 received the free base form of Z-endoxifen on day 1 rather than the hydrochloride salt to assess the pharmacokinetics of that formulation.
A 3-mL blood sample was collected in a K2 EDTA tube on day 1 of cycle 1 before drug administration and at the following times post-first dose: 0.5, 1, 2, 3, 4, 6, 8, and 24 hours. Samples were collected at the same time points on day 28 of cycle 1 for DL1-6 until a protocol amendment eliminated the requirement for these samples at the higher dose levels. Samples were wrapped in aluminum foil after collection to protect from light exposure. A 10-mL aliquot of urine was collected before agent administration on cycle 1 day 1, for 24 hours after dosing on day 1, and before drug administration on cycle 2 day 1; samples were refrigerated prior to analysis.
Plasma and urine concentrations of Z- and E-endoxifen were measured using a validated, post-column fluorescence derivatization HPLC assay. Non-compartmental pharmacokinetic parameters were calculated using WinNonlin version 7.0 (Pharsight Corp., Mountainview, CA, USA). A 2 μM Cmax target was established for day 28 plasma concentration. The amount of Z-endoxifen excreted in urine was measured over a 24-hour collection period.

ERα = settings: cited from earlier work
ERβ = settings: cited from earlier work
ovarian cancer = settings: patients with ovarian cancer; cited from earlier work
[2] = test system: metastatic ER+ breast cancer; settings: women with metastatic ER+ breast cancer; cited from earlier work
[3] = test system: hormone-refractory prostate cancer; settings: 200 mg/m^2/day, men with hormone-refractory prostate cancer; cited from earlier work
[4] = free base, 360 mg oral, day 1, mean of patients 35 and 36
[5] = free base, 360 mg oral, day 1, patients 35 and 36 individually

**Q.** Which “AUC(0–24 h), Mean” value [1, 4] does the source give for CC/C(=C(\c1ccc(O)cc1)c1ccc(OCCNC)cc1)c1ccccc1 [free base form of Z-endoxifen] here?
**A.** 25248 ng·h/mL

**Q.** What about the “C24 h, Mean” value [1, 4] of the same compound?
**A.** 790 ng/mL

**Q.** What about the Cmax, Mean [1, 4] of the same compound?
**A.** 1770 ng/mL

**Q.** What about the “Tmax, Mean” value [1, 4] of the same compound?
**A.** 5.0 h

**Q.** And the “AUC(0–24 h)” value [1, 5]?
**A.** 8959 ng·h/mL and 41537 ng·h/mL

**Q.** What about the C24h [1, 5] of the same compound?
**A.** 12 ng/mL and 1568 ng/mL

**Q.** What about the Tmax [1, 5] of the same compound?
**A.** 6.0 h and 4.0 h

**Q.** With 4-hydroxy-tamoxifen as the compound, how does the “binding affinity relative to tamoxifen or NDM-tamoxifen” value (ERα) read?
**A.** approximately 100 fold

**Q.** What about the “binding affinity relative to tamoxifen or NDM-tamoxifen” value (ERβ) of the same compound?
**A.** approximately 100 fold

**Q.** For CC/C(=C(/c1ccc(O)cc1)c1ccc(OCCNC)cc1)c1ccccc1 [E-endoxifen], which “Plasma concentration as percentage of Z-endoxifen levels” value ([1]; after oral Z-endoxifen) is on record?
**A.** < 2%

**Q.** With CC/C(=C(\c1ccc(O)cc1)c1ccc(OCCNC)cc1)c1ccccc1 [Endoxifen, 4-hydroxy-N-desmethyl-tamoxifen] as the compound, how does the “binding affinity relative to tamoxifen or NDM-tamoxifen” value (ERα) read?
**A.** approximately 100 fold

**Q.** And the “binding affinity relative to tamoxifen or NDM-tamoxifen” value (ERβ)?
**A.** approximately 100 fold

**Q.** Which complete responses (ovarian cancer) does the source give for CC/C(=C(\c1ccccc1)c1ccc(OCCN(C)C)cc1)c1ccccc1 [tamoxifen] here?
**A.** 4%

**Q.** What about the partial responses (ovarian cancer) of the same compound?
**A.** 9%

**Q.** What about the stable disease (ovarian cancer) of the same compound?
**A.** 38%

**Q.** What about the women deriving benefit [2] of the same compound?
**A.** about 50%

**Q.** What about the “mean plasma tamoxifen concentration” value [3] of the same compound?
**A.** 2.94 (± 1.15) μM
